Counter-ions that a name gives are not always drawn.
Columns and labels:
[1] = test system: K562 (human chronic myelogenous leukemia) cells; test: Cell Titer Glo 2.0 cell viability assay; format: cell-based; conditions: Homo sapiens, K562, 72 h, K562 cells, 72 hours, Cell Titer Glo 2.0; read-out: K562 GI50
[2] = test system: Target C; test: RT-qPCR splicing assay panel, Target C canonical junction (CJ) mRNA; format: cell-based, human; conditions: Homo sapiens; Table 5 panel; canonical junction qPCR; compound concentration having 50% response in CJ decrease; read-out: Target C IC50 (decrease in CJ mRNA levels)
Summary of the method: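 Exposure: 24 h, 37 °C, 11-point 3-fold dilutions from 10 uM final, DMSO at or below 0.25%, in A673 or K562 cells. Detection: cell-lysate RT-qPCR of canonical junction mRNA relative to GAPDH, GUSB or PPIA.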

[3] = test system: MYB; test: HiBiT protein abundance assay, MYB HiBiT K562 cell line; format: cell-based, human; conditions: HiBiT K562 cell line, 24 hours, top dose 10 μM; read-out: Effect on protein abundance, MYB (IC50 category)
Summary of the method: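 K562 knock-in lines with endogenous HiBiT-tagged target, 10,000 cells/well in IMDM + FBS, treated 24 h at 37° C with 10-point 3-fold dilutions (top 10 μM final; DMSO ≤0.25%). Lytic Nano-Glo HiBiT luminescence normalized to untagged K562 baseline and DMSO controls; IC50 = concentration giving 50% abundance via four-parameter fit.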

Row | Compound | GI50 [1] [nM] | IC50 [2] [nM] | IC50 [3] [nM]
1 | COc1cccc(Oc2cc(-c3ccc4c(=O)n(C5CCNCC5)ccc4c3)nn3cc(C)nc23)c1 [Compound 547, 6-[8-(3-methoxyphenoxy)-2-methyl-imidazo[1,2-b]pyridazin-6-yl]-2-(4 piperidyl) isoquinolin-1-one] | < 100 | < 100 | < 100
2 | Cc1cn2nc(-c3ccc4c(=O)n(C5CCNCC5)ncc4c3)cc(Oc3ccccc3)c2n1 [Compound 549, 6-(2-methyl-8-phenoxy-imidazo[1,2-b]pyridazin-6-yl)-2-(4-piperidyl) phthalazin-1-one] | 100 to 1000 | 100 to 1000 | < 100
3 | Cc1cn2nc(-c3ccc4c(=O)n(C5CCNCC5)ccc4c3)cc(Oc3cccnc3)c2n1 [Compound 550, 6-[2-methyl-8-(3-pyridyloxy)imidazo[1,2-b]pyridazin-6-yl]-2-(4-piperidyl)isoquinolin-1-one] | < 100 | < 100 | < 100
4 | Cc1cn2nc(-c3ccc4c(=O)n(C5CCNCC5)ccc4c3)cc(-n3ccc(=O)cc3)c2n1 [Compound 551, 6-[2-methyl-8-(4-oxo-1-pyridyl)imidazo[1,2-b]pyridazin-6-yl]-2-(4-piperidyl)isoquinolin-1-one] | 100 to 1000 | 100 to 1000 | 100 to 1000
5 | Cc1cn2nc(-c3ccc4c(=O)n(C5CCNCC5)ccc4c3)cc(-n3ccccc3=O)c2n1 [Compound 552, 6-[2-methyl-8-(2-oxo-1-pyridyl)imidazo[1,2-b]pyridazin-6-yl]-2-(4-piperidyl)isoquinolin-1-one] | > 10000 | > 10000 | 1000 to 10000
6 | Cc1cn2nc(-c3cc(O)c4c(=O)n(C5CCN(CCF)CC5)ncc4c3)cc(C)c2n1 [Compound 553] | 100 to 1000 | 100 to 1000 | 100 to 1000
7 | Cc1cc(-c2cc(F)c3c(=O)n(C4CCNC5(CC5)C4)ncc3c2)cc2cn(C)nc12 (stereo not drawn) [Compound 554] | 100 to 1000 | 100 to 1000 | 100 to 1000
8 | Cc1nc2c(C)cc(-c3cc(F)c4c(=O)n(C5CCNC6(CC6)C5)ncc4c3)cc2o1 (stereo not drawn) [Compound 555] | 100 to 1000 | 100 to 1000 | 100 to 1000
9 | Cc1cc(-c2cc(O)c3c(=O)n(C4CCNC5(CC5)C4)ncc3c2)cc2cn(C)nc12 (stereo not drawn) [Compound 561] | 1000 to 10000 | 1000 to 10000 | 100 to 1000
10 | Cc1cn2nc(-c3cc(F)c4c(=O)n([C@@H]5CCN(C)C6(CC6)C5)ncc4c3)cc(C)c2n1 [Compound 637] | 100 to 1000 | < 100 | < 100
11 | Cc1cn2nc(-c3cc(F)c4c(=O)n([C@H]5CCN(C)C6(CC6)C5)ncc4c3)cc(C)c2n1 [Compound 638] | 100 to 1000 | < 100 | 100 to 1000
12 | Cc1cn2nc(-c3cc4ccn([C@@H]5CCNC5)c(=O)c4cc3O)cc(C)c2n1 [Compound 640, 6-(2,8-dimethylimidazo[1,2-b]pyridazin-6-yl)-7-hydroxy-2-[(3R)-pyrrolidin-3-yl]isoquinolin-1-one] | 100 to 1000 | 1000 to 10000 | < 100
13 | Cc1cn2nc(-c3cc4ccn([C@H]5CCNC5)c(=O)c4cc3O)cc(C)c2n1 [Compound 641, 6-(2,8-dimethylimidazo[1,2-b]pyridazin-6-yl)-7-hydroxy-2-[(3S)-pyrrolidin-3-yl]isoquinolin-1-one] | 100 to 1000 | 1000 to 10000 | < 100

Second part, the molecule after the results:

Row | GI50 [1] [nM] | IC50 [2] [nM] | IC50 [3] [nM] | Compound
14 | 100 to 1000 | < 100 | < 100 | Cc1cn2nc(-c3ccc4c(=O)n(C5CCNCC5)ccc4c3)cc(Oc3ccccc3F)c2n1 [Compound 544, 6-[8-(2-fluorophenoxy)-2-methyl-imidazo[1,2-b]pyridazin-6-yl]-2-(4-piperidyl) isoquinolin-1-one; hydrochloride]
15 | < 100 | < 100 | < 100 | Cc1cn2nc(-c3ccc4c(=O)n(C5CCNCC5)ccc4c3)cc(Oc3cccc(F)c3)c2n1 [Compound 545, 6-[8-(3-fluorophenoxy)-2-methyl-imidazo[1,2-b]pyridazin-6-yl]-2-(4-piperidyl)isoquinolin-1-one; hydrochloride]
16 | < 100 | < 100 | < 100 | Cc1cn2nc(-c3ccc4c(=O)n(C5CCNCC5)ccc4c3)cc(Oc3ccc(F)cc3)c2n1 [Compound 546, 6-[8-(4-fluorophenoxy)-2-methyl-imidazo[1,2-b]pyridazin-6-yl]-2-(4-piperidyl) isoquinolin-1-one; hydrochloride]
17 | < 100 | < 100 | < 100 | Cc1cn2nc(-c3cc(F)c4c(=O)n(C5CCNCC5)ncc4c3)cc(Oc3ccccc3)c2n1 [Compound 548, 8-fluoro-6-(2-methyl-8-phenoxy-imidazo[1,2-b]pyridazin-6-yl)-2-(4-piperidyl)phthala-zin-1-one]
18 | 100 to 1000 | 1000 to 10000 | 100 to 1000 | Cc1cn2cc(-c3cc(F)c4c(=O)n(C5CCNC6(CC6)C5)ncc4c3)cc(Cl)c2n1 (stereo not drawn) [Compound 556]
19 | 100 to 1000 | 1000 to 10000 | 100 to 1000 | Cc1cn2cc(-c3cc(O)c4c(=O)n(C5CCNC6(CC6)C5)ncc4c3)cc(Cl)c2n1 (stereo not drawn) [Compound 557]
20 | 100 to 1000 | 1000 to 10000 | 100 to 1000 | CCc1cn(C2CCNCC2)c(=O)c2c(F)cc(-c3cc(F)c4nc(C)cn4c3)cc12 [Compound 558, 4-ethyl-8-fluoro-6-{8-fluoro-2-methylimidazo[1,2-a]pyridin-6-yl}-2-(piperidin-4-yl)isoquinolin-1-one]
21 | < 100 | 100 to 1000 | < 100 | C=Cc1cn(C2CCNCC2)c(=O)c2c(F)cc(-c3cc(F)c4nc(C)cn4c3)cc12 [Compound 559, 4-ethenyl-8-fluoro-6-{8-fluoro-2-methylimidazo[1,2-a]pyridin-6-yl}-2-(piperidin-4-yl)isoquinolin-1-one]
22 | 100 to 1000 | 1000 to 10000 | 100 to 1000 | Cc1cn2cc(-c3ccc4c(=O)n(C5CCNCC5)ccc4c3)cc(C#N)c2n1 [Compound 560, 2-methyl-6-[1-oxo-2-(piperidin-4-yl)isoquinolin-6-yl]imidazo[1,2-a]pyridine-8-carbonitrile]
23 | 1000 to 10000 | 1000 to 10000 | 1000 to 10000 | Cc1cn2nc(-c3cc4ncn(C5CCNCC5)c(=O)c4cc3F)cc(C)c2n1 [Compound 585, 7-{2,8-dimethylimidazo[1,2-b]pyridazin-6-yl}-6-fluoro-3-(piperidin-4-yl)quinazolin-4-one]
24 | 100 to 1000 | 1000 to 10000 | 100 to 1000 | Cc1cn2cc(-c3cc4ncn(C5CCNCC5)c(=O)c4cc3F)cc(F)c2n1 [Compound 586, 6-fluoro-7-{8-fluoro-2-methylimidazo[1,2-a]pyridin-6-yl}-3-(piperidin-4-yl)quinazolin-4-one]
25 | 100 to 1000 | 100 to 1000 | < 100 | Cc1cn2cc(-c3cc(O)c4c(=O)n(C5CCNCC5)cnc4c3)cc(F)c2n1 [Compound 587, 7-{8-fluoro-2-methylimidazo[1,2-a]pyridin-6-yl}-5-hydroxy-3-(piperidin-4-yl)quinazolin-4-one]
26 | 1000 to 10000 | 100 to 1000 | 100 to 1000 | Cc1cn2cc(-c3cc(F)c4c(=O)n(C5CCNCC5)cnc4c3)cc(C#N)c2n1 [Compound 588]
27 | 1000 to 10000 | > 10000 | 1000 to 10000 | Cc1cn2nc(-c3cc(F)c4c(=O)n(C5CCNC5)cnc4c3)cc(C)c2n1 (stereo not drawn) [Compound 589, 7-{2,8-dimethylimidazo[1,2-b]pyridazin-6-yl}-5-fluoro-3-(pyrrolidin-3-yl)quinazolin-4-one]
28 | 1000 to 10000 | 1000 to 10000 | 100 to 1000 | Cc1cn2cc(-c3cc(F)c4c(=O)n([C@@H]5C[C@@H](C)N[C@@H](C)C5)ccc4c3)cc(F)c2n1 [Compound 642, 2-[(2S,6R)-2,6-dimethyl-4-piperidyl]-8-fluoro-6-(8-fluoro-2-methyl-imidazo[1,2-a]pyridin-6-yl)isoquinolin-1-one]
29 | 1000 to 10000 | > 10000 | 1000 to 10000 | Cc1cn2cc(-c3cc(F)c4c(=O)n([C@H]5CNC[C@@H]5F)ccc4c3)cc(F)c2n1 [Compound 644]
30 | 1000 to 10000 | > 10000 | 1000 to 10000 | Cc1cn2nc(-c3cc(N)c4c(=O)n([C@H]5CCNC5)ccc4c3)cc(C)c2n1 [Compound 645, 8-amino-6-(2,8-dimethylimidazo[1,2-b]pyridazin-6-yl)-2-[(3S)-pyrrolidin-3-yl]isoquinolin-1-one]
31 | 1000 to 10000 | > 10000 | 1000 to 10000 | Cc1cn2nc(-c3cc(N)c4c(=O)n([C@@H]5CCNC5)ccc4c3)cc(C)c2n1 [Compound 646, 8-amino-6-(2,8-dimethylimidazo[1,2-b]pyridazin-6-yl)-2-[(3R)-pyrrolidin-3-yl]isoquinolin-1-one]
32 | 1000 to 10000 | > 10000 | 1000 to 10000 | CNc1cc(-c2cc(C)c3nc(C)cn3n2)cc2ccn([C@H]3CCNC3)c(=O)c12 [Compound 647, 6-(2,8-dimethylimidazo[1,2-b]pyridazin-6-yl)-8-(methylamino)-2-[(3S)-pyrrolidin-3-yl]isoquinolin-1-one]

— patent publication US20250332173A1, “COMPOUNDS AND METHODS FOR MODULATING NUCLEIC ACID SPLICING” (REMIX THERAPEUTICS INC., priority 2021, published 2025)
